Experiments:
PDE9A [1] = target: T1, PDE9A (Homo sapiens (Human), UniProt O76083); settings: concentrations of up to 100 μM; cited from earlier work
Murine PDE9A = Murine PDE9A (Mus musculus (Mouse), UniProt O70628); settings: concentrations below 200 μM; cited from earlier work
PDE2A = PDE2A (Homo sapiens (Human), UniProt O00408); experiment: PDE inhibition, recombinant PDE2A; format: biochemical
From the text: (§1) Recombinant PDE1C (GenBank/EMBL Accession Number: NM_005020, Loughney et al. J. Biol. Chem. 1996 271, 796-806), PDE2A (GenBank/EMBL Accession Number: NM_002599, Rosman et al. Gene 1997 191, 89-95), PDE3B (GenBank/EMBL Accession Number: NM_000922, Miki et al. Genomics 1996, 36, 476-485), PDE4B (GenBank/EMBL Accession Number: NM_002600, Obernolte et al. Gene. 1993, 129, 239-247), PDE5A (GenBank/EMBL Accession Number: NM_001083, Loughney et al. Gene 1998, 216, 139-147), PDE7B (GenBank/EMBL Accession Number: NM_018945, Hetman et al. Proc. Natl. Acad. Sci. U.S.A. 2000, 97, 472-476), PDE8A (GenBank/EMBL Accession Number. AF—056490, Fisher et al. Biochem. Biophys. Res. Commun. […]
(§2) The test substances are dissolved in 100% DMSO and serially diluted to determine their in vitro effect on PDE 9A. […] The plates are then measured for 30 s per well in a Microbeta scintillation counter (Wallac Inc., Atlanta, Ga.). IC50 values are determined from the graphical plot of the substance concentration versus the percentage inhibition.
(§3) The in vitro effect of test substances on recombinant PDE3B, PDE4B, PDE7B, PDE8A, PDE10A and PDE11A is determined in accordance with the assay protocol described above for PDE9A with the following adaptations: [5′,8-^3H] adenosine 3′,5′-cyclic phosphate (1 μCi/μL; Amersham Pharmacia Biotech., Piscataway, N.J.) is used as substrate. […]

PDE9A [2] = target: T1, PDE9A; experiment: PDE inhibition, recombinant PDE9A; format: biochemical
Procedure: (§4) The test substances are dissolved in 100% DMSO and serially diluted to determine their in vitro effect on PDE 9A. […] 2 μL portions of the diluted substance solutions are introduced into the wells of microtiter plates (Isoplate; Wallac Inc., Atlanta, Ga.). Then 50 μL of a dilution of the PDE9A preparation described above are added. […] The substrate, [8-^3H] guanosine 3′,5′-cyclic phosphate (1 μCi/μL; Amersham Pharmacia Biotech., Piscataway, N.J.) is diluted 1:2000 with assay buffer (50 mM Tris/HCl pH 7.5, 8.3 mM MgCl2, 1.7 mM EDTA) to a concentration of 0.0005 μCi/μL. The enzyme reaction is finally started by adding 50 μL (0.025 μCi) of the diluted substrate. […] Immediately thereafter, 25 μL of a suspension containing 18 mg/mL Yttrium Scintillation Proximity Beads (Amersham Pharmacia Biotech., Piscataway, N.J.) are added. The microliter plates are sealed with a film and left to stand at room temperature for 60 min. The plates are then measured for 30 s per well in a Microbeta scintillation counter (Wallac Inc., Atlanta, Ga.). IC50 values are determined from the graphical plot of the substance concentration versus the percentage inhibition.

PDE4B = PDE4B (Homo sapiens, UniProt Q07343); experiment: PDE inhibition, recombinant PDE4B; format: biochemical
Sequence of PDE4B (Q07343 whole entry, looked up): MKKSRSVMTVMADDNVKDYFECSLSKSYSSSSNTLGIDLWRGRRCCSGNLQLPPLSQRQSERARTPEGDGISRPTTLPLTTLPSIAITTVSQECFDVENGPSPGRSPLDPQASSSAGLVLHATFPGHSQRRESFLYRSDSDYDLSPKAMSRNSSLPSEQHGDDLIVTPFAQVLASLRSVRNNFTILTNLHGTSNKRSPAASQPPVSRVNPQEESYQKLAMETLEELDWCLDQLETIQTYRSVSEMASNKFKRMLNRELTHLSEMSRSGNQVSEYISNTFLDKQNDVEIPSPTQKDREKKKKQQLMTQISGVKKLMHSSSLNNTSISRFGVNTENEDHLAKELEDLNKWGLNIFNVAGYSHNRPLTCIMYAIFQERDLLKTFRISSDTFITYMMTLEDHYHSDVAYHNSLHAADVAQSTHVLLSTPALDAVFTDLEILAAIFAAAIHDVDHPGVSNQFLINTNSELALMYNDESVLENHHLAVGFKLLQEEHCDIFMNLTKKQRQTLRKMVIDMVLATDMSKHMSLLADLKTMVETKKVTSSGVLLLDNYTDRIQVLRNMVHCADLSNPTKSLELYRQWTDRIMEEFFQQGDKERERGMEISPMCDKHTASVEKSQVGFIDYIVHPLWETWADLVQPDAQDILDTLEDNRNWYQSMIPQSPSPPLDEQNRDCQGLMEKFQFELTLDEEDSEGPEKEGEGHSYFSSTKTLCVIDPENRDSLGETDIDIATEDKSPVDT
Procedure: as §4, with “The microliter plates are sealed with a film and left to stand at room temperature for 60 min.” left out
The in vitro effect of test substances on recombinant PDE3B, PDE4B, PDE7B, PDE8A, PDE10A and PDE11A is determined in accordance with the assay protocol described above for PDE9A with the following adaptations: [5′,8-^3H] adenosine 3′,5′-cyclic phosphate (1 μCi/μL; Amersham Pharmacia Biotech., Piscataway, N.J.) is used as substrate.

PDE7B = PDE7B (Homo sapiens (Human), UniProt Q9NP56); experiment: PDE inhibition, recombinant PDE7B; format: biochemical
Sequence of PDE7B (Q9NP56 whole entry): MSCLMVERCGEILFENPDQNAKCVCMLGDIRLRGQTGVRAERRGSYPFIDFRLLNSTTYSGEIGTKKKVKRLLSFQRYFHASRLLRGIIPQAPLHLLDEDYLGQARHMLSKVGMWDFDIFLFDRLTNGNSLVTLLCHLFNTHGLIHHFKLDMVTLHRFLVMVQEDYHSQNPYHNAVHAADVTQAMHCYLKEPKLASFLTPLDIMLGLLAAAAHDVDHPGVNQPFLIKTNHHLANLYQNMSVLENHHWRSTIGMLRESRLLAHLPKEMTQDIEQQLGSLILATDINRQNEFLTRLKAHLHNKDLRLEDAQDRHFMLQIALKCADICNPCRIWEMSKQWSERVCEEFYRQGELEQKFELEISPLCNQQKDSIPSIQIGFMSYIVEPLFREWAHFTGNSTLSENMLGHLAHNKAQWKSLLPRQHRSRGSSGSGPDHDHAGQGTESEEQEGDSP
From the text: as §1, §2, §3

PDE8A = PDE8A (Homo sapiens (Human), UniProt O60658); experiment: PDE inhibition, recombinant PDE8A; format: biochemical
From the text: as §1, §2, §3

PDE10A = PDE10A (Homo sapiens (Human), UniProt Q9Y233); experiment: PDE inhibition, recombinant PDE10A; format: biochemical
From the text: as §1, §2, §3

PDE5A = PDE5A (Homo sapiens (Human), UniProt O76074); experiment: PDE inhibition, recombinant PDE5A; format: biochemical
From the text: as §1, §2, §3

PDE1C = PDE1C (Homo sapiens (Human), UniProt Q14123); experiment: PDE inhibition, recombinant PDE1C; format: biochemical
PDE3B = PDE3B (Homo sapiens (Human), UniProt Q13370); experiment: PDE inhibition, recombinant PDE3B; format: biochemical
Sequence of PDE3B (Q13370 whole entry): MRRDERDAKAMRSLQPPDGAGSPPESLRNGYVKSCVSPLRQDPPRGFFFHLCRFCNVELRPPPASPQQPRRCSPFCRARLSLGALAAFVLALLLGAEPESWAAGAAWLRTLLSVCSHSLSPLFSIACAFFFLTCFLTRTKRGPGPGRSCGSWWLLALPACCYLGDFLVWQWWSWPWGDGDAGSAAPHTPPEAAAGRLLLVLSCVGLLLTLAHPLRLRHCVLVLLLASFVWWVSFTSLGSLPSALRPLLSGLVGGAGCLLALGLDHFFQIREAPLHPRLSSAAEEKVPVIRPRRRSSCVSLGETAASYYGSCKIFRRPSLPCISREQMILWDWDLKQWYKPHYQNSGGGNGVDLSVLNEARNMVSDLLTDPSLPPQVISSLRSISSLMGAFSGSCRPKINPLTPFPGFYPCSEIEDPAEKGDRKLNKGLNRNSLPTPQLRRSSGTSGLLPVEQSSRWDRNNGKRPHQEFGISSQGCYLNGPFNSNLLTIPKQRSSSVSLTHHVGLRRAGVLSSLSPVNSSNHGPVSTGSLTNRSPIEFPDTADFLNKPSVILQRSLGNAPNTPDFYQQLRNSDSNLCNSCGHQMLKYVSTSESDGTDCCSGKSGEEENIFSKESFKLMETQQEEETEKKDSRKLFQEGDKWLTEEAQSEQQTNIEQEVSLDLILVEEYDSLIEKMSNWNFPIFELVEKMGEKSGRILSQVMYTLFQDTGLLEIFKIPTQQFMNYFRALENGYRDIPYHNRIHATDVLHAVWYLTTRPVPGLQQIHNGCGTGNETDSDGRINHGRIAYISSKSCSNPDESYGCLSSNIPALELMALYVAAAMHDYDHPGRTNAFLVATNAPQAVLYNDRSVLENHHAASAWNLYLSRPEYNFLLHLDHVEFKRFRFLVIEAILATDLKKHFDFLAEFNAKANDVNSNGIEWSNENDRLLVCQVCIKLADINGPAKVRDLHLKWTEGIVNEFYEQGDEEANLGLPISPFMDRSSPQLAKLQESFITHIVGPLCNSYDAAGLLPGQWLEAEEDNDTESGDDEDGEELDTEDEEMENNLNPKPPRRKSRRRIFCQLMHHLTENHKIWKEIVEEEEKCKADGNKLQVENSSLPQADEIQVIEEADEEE
From the text: as §1, §2, §3

T1 sequence (O76083 whole entry): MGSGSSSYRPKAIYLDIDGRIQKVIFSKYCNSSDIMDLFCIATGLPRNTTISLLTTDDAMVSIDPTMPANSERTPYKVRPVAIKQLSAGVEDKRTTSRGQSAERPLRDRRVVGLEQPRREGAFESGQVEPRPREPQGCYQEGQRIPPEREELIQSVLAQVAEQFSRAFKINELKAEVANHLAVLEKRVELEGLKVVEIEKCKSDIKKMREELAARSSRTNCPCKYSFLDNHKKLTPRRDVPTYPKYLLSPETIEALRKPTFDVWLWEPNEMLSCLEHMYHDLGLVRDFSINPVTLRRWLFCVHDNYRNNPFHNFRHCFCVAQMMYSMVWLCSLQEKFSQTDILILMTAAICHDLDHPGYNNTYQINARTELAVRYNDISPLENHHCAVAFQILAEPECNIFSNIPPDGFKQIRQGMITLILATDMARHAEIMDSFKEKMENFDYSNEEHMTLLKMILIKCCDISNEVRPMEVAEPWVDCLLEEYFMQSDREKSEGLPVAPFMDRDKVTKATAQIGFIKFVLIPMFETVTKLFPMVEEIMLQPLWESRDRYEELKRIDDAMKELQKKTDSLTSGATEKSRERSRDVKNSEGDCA
Sequence of Murine PDE9A (O70628 whole entry): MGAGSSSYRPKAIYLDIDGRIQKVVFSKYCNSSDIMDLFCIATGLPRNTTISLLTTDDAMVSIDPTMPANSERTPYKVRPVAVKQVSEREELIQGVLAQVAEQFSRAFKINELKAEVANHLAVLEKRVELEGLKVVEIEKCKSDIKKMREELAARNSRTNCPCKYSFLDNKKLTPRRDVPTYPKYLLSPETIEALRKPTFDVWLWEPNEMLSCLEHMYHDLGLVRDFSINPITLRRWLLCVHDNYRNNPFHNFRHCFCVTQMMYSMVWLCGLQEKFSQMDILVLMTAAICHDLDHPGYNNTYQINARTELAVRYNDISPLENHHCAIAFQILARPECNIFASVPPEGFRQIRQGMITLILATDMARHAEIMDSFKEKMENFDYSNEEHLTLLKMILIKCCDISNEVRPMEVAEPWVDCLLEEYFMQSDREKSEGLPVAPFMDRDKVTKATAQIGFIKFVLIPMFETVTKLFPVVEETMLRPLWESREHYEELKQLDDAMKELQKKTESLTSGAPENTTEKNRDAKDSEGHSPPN
Sequence of PDE2A (O00408 whole entry): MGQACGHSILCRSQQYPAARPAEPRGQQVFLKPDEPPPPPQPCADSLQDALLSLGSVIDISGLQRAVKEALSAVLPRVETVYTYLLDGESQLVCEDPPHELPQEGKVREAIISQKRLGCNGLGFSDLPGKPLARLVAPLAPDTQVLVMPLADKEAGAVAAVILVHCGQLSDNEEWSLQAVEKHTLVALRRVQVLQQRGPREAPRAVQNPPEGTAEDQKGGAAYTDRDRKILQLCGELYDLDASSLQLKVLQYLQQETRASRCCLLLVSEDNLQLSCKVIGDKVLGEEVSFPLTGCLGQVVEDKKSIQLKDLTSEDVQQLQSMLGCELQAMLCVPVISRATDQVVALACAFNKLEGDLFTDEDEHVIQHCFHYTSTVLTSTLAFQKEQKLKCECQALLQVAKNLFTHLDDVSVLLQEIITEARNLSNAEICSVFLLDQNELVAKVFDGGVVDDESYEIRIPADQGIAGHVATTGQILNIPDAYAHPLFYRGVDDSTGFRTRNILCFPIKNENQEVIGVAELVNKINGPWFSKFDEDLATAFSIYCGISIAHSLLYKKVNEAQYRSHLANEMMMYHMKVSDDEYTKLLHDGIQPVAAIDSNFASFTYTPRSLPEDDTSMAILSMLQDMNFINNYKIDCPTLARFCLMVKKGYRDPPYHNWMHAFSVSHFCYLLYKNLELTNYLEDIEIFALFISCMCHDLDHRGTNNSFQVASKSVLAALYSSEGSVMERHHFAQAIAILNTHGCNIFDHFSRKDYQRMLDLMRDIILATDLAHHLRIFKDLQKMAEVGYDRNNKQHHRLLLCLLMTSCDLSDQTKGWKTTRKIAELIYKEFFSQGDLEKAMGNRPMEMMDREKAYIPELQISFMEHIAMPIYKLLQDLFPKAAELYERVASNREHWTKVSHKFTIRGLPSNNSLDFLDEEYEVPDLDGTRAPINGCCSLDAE

melting point [°C]	SMILES	also measured
128	CCC(CC)n1ncc2c(=O)[nH]c(CC3C=CCC3)nc21 (stereo not shown)	–
136	CCC(CC)n1ncc2c(=O)[nH]c(CC3CCCO3)nc21 (stereo not shown) [Example 11, 1-(1-Ethylpropyl)-6-(tetrahydro-2-furanylmethyl)-1,5-dihydro-4H-pyrazolo[3,4-d]-pyrimidin-4-one]	–
–	OCCN(CCO)c1nc(N2CCCCC2)c2nc(N(CCO)CCO)nc(N3CCCCC3)c2n1 [dipyridamole]	inhibition on the isolated enzyme (PDE9A [1]): no inhibition
138	O=c1[nH]c(CCCO)nc2c1cnn2C1CCCC1 [Example 2, 1-Cyclopentyl-6-(3-hydroxypropyl)-1,5-dihydro-4H-pyrazolo[3,4-d]pyrimidin-4-one]	–
–	CC(C)Cn1c(=O)n(C)c(=O)c2[nH]cnc21 [IBMX]	inhibition on the isolated enzyme (PDE9A [1]): no inhibition; inhibition (Murine PDE9A): not inhibited
156	CCC(CC)n1ncc2c(=O)[nH]c(CC3CCCC3)nc21 [Example 21, 6-(Cyclopentylmethyl)-1-(1-ethylpropyl)-1,5-dihydro-4H-pyrazolo[3,4-d]pyrimidin-4-one]	–
–	COc1ccc(C2CNC(=O)C2)cc1OC1CCCC1 (stereo not shown) [rolipram]	inhibition on the isolated enzyme (PDE9A [1]): no inhibition
–	CC(=O)Nc1ccc(-c2c[nH]c(=O)cn2)cc1 [SKF94120]	inhibition on the isolated enzyme (PDE9A [1]): no inhibition
133	CC(C)CCc1nc2c(cnn2C2CCCC2)c(=O)[nH]1 [Example 5, 1-Cyclopentyl-6-(3-methylbutyl)-1,5-dihydro-4H-pyrazolo[3,4-d]pyrimidin-4-one]	–
156	CCC(CC)n1ncc2c(=O)[nH]c(CC(C)C(F)(F)F)nc21 (stereo not shown) [Example 22, 1-(1-Ethylpropyl)-6-(3,3,3-trifluoro-2-methylpropyl)-1,5-dihydro-4H-pyrazolo[3,4-d]pyrimidin-4-one]	–
86	CCC(C)Cc1nc2c(cnn2C2CCCC2)c(=O)[nH]1 (stereo not shown)	–
147	O=c1[nH]c(CC2CCCCC2)nc2c1cnn2C1CCCC1	–
166	CC(Cc1nc2c(cnn2C2CCCC2)c(=O)[nH]1)C(F)(F)F (stereo not shown) [Example 23, 1-(1-Cyclopentyl)-6-(3,3,3-trifluoro-2-methylpropyl)-1,5-dihydro-4H-pyrazolo[3,4-d]pyrimidin-4-one]	–
121	CCC(C)Cc1nc2c(cnn2C(CC)CC)c(=O)[nH]1 (stereo not shown) [Example 7, 1-(1-Ethylpropyl)-6-(2-methylbutyl)-1,5-dihydro-4H-pyrazolo[3,4-d]pyrimidin-4-one]	–
118	CCOC(=O)CCc1nc2c(cnn2C(CC)CC)c(=O)[nH]1 [Example 14, Ethyl 4-[1-(1-ethylpropyl)-4-oxo-4,5-dihydro-1H-pyrazolo[3,4-d]pyrimidin-6-yl]-propionate]	–
127	CCCc1nc2c(cnn2C(CC)CC)c(=O)[nH]1 [Example 10, 1-(1-Ethylpropyl)-6-propyl-1,5-dihydro-4H-pyrazolo[3,4-d]pyrimidin-4-one]	–
161	CCC(CC)n1ncc2c(=O)[nH]c(CC(C)C)nc21 [Example 9, 1-(1-Ethylpropyl)-6-isobutyl-1,5-dihydro-4H-pyrazolo[3,4-d]pyrimidin-4-one]	–
122	CCC(CC)n1ncc2c(=O)[nH]c(CC3CCCCC3)nc21 [Example 3, 6-(Cyclohexylmethyl)-1-(1-ethylpropyl)-1,5-dihydro-4H-pyrazolo[3,4-d]pyrimidin-4-one]	IC50 (PDE2A): > 4 µM; IC50 (PDE9A [2]): 110 nM; IC50 (PDE4B): > 4 µM; IC50 (PDE7B): > 4 µM; IC50 (PDE8A): > 4 µM; IC50 (PDE10A): > 4 µM; IC50 (PDE5A): > 4 µM; IC50 (PDE1C): 720 nM; IC50 (PDE3B): > 4 µM
127	CCC(CC)n1ncc2c(=O)[nH]c(CCC(C)C)nc21 [Example 8, 1-(1-Ethylpropyl)-6-isopentyl-1,5-dihydro-4H-pyrazolo[3,4-d]pyrimidin-4-one]	–
126	CC1CCC(Cc2nc3c(cnn3C3CCCC3)c(=O)[nH]2)CC1 (stereo not shown) [Example 15, 1-Cyclopentyl-6-[(4-methylcyclohexyl)methyl]-1,5-dihydro-4H-pyrazolo[3,4-d]-pyrimidin-4-one]	–
185	CCOC(=O)CCc1nc2c(cnn2C2CCCC2)c(=O)[nH]1 [Example 18, Ethyl 4-[1-cyclopentyl-4-oxo-4,5-dihydro-1H-pyrazolo[3,4-d]pyrimidin-6-yl]-propionate]	–
–	CCOC(=O)C1=C[C@]2(CC)CCCN3CCc4c(n1c1ccccc41)[C@@H]32 [vinpocetine]	inhibition on the isolated enzyme (PDE9A [1]): no inhibition
179	O=c1[nH]c(CC2CCCO2)nc2c1cnn2C1CCCC1 (stereo not shown)	–
166	O=c1[nH]c(CC2C=CCC2)nc2c1cnn2C1CCCC1 (stereo not shown)	–
